Key:
[1] = Forced swim test after acute antidepressant injection in Fkbp51+/+ and Fkbp51-/- mice; assay type: in vivo; conditions: acute injection 10 mgkg-1
Method: The Fkbp51^-/- mouse line was previously generated (Touma C et al. (2011) Biol. Psychiatry 70: 928-936) and fully backcrossed to C57/BI6. […] Hippocampus and prefrontal cortex were extracted. […] Male mice (age 10-16 weeks) were injected intraperitoneally with a single dose of either AMI (10 mg kg^-1) or saline vehicle. […] Another subgroup (WT n=5, KO n=5) was sacrificed, and brain tissue and blood was sampled for analysis of drug concentrations. […] The inventors performed an additional forced swim test administering the antidepressant amitriptyline in FKBP51 WT and FKBP51 KO mice (Fig. 1 B).

[2] = Chronic PAR treatment after chronic social defeat stress: behavioral tests (open field, social avoidance, forced swim); assay type: in vivo; conditions: FKBP51-deleted versus wild type mice
Text: After cessation of the stressor, groups were subdivided into vehicle-treated and paroxetine-treated animals, resulting in 8 groups (n = 7-13 per group). The treatment phase lasted for three weeks. The behavioral tests took place during the last week of the paroxetine treatment. The CSDS paradigm lasted for 21 days. Briefly, the experimental mice were introduced into the home cage (45 cm x 25 cm) of a dominant resident mouse and defeated shortly after. When the defeat was achieved, the animals were separated by a wire mesh, preventing physical but allowing sensory contact for 24 h. Each day, stressed animals were defeated by another unfamiliar, dominant resident mouse in order to exclude a repeated encounter throughout the experiment. The daily defeat was performed between 11:00 and 16:00 h; varying starting times reduced the predictability of the stressor and therefore minimized a potential habituation effect. […] Both stress and control animals were handled daily during the stress procedure; body weight for all mice was assessed at the beginning of the experiment, after the cessation of the stress period, and on the day of killing. […] All tests were analyzed using an automated videotracking system (Anymaze 4.20, Stoelting, Wood Dale, IL). […] Time spent immobile (floating) and time spent struggling was scored by an experienced observer, blind to treatment or condition of the animals.

[3] = Chronic PAR treatment after chronic social defeat stress: physiological and neuroendocrine parameters; assay type: in vivo, mice
Text: Initially, wild-type and 51 KOmice were split into 2 x 2 groups (control WT, control FKBP51^-/-, defeat WT, defeat FKBP51^-/-) and subjected to the chronic stress procedure described below. After cessation of the stressor, groups were subdivided into vehicle-treated and paroxetine-treated animals, resulting in 8 groups (n = 7-13 per group). The treatment phase lasted for three weeks. The behavioral tests took place during the last week of the paroxetine treatment.
The CSDS paradigm lasted for 21 days. Briefly, the experimental mice were introduced into the home cage (45 cm x 25 cm) of a dominant resident mouse and defeated shortly after. When the defeat was achieved, the animals were separated by a wire mesh, preventing physical but allowing sensory contact for 24 h. Each day, stressed animals were defeated by another unfamiliar, dominant resident mouse in order to exclude a repeated encounter throughout the experiment. The daily defeat was performed between 11:00 and 16:00 h; varying starting times reduced the predictability of the stressor and therefore minimized a potential habituation effect. […] Both stress and control animals were handled daily during the stress procedure; body weight for all mice was assessed at the beginning of the experiment, after the cessation of the stress period, and on the day of killing. […]

Fc1ccc([C@@H]2CCNC[C@H]2COc2ccc3c(c2)OCO3)cc1 [PAR, paroxetine]
time spent struggling, forced swim test ([1]; Fkbp51+/+ mice): increase in the time spent struggling
time floating (immobility), forced swim test ([1]; Fkbp51+/+ mice, versus vehicle): less time floating
effect on time floating (immobility), forced swim test ([1]; Fkbp51-/- mice): significantly less pronounced
effect on time spent struggling, forced swim test ([1]; Fkbp51-/- mice): significantly attenuated
enhancing struggling and reducing floating, forced swim test [2]: significantly less effective
paroxetine-induced body weight increase ([3]; 51 KO versus wild-type mice): significantly less affected
paroxetine-induced body weight increase ([3]; basal conditions versus stressed animals): significantly enhanced in mice under basal conditions compared to stressed animals

From patent EP2954896A1, “Small molecule inhibitors of the E3 Ligase Skp2 in depression and other diseases” (Max-Planck-Gesellschaft zur Förderung der Wissenschaften …, priority 2014, dated 2015)
